Reference: PMC3881423 (Journal of medicinal chemistry, 2013)
pKd: −log10 of the molar value.

Columns and labels:
MAO-B = MAO-B (Homo sapiens, UniProt P27338)
MAO-A = MAO-A (Homo sapiens, UniProt P21397)
LSD1 [1] = target: T1, LSD1 (Homo sapiens, UniProt O60341)
[2] = target: LSD1-snai1 complex in MGC-803 cells (Homo sapiens, UniProt O60341); conditions: MGC-803, 48h; 2-PCPA 100, 250μM
MGC-803 cells [3] = conditions: MGC-803, 0.25 μM
LSD1 [4] = target: T1, LSD1; conditions: dialyzed against hepes buffer 4°C 24 h
LSD1 [5] = target: T1, LSD1; conditions: monitored at 468nm; data not shown
MGC-803 cells [6] = conditions: MGC-803, 0.02 μM, 48 h
[7] = target: purified LSD1 recombinant (Homo sapiens, UniProt O60341)
LSD1 [8] = target: T1, LSD1; experiment: Microscale thermophoresis; format: binding

MAO-B, sequence (P27338 whole entry, species assumed): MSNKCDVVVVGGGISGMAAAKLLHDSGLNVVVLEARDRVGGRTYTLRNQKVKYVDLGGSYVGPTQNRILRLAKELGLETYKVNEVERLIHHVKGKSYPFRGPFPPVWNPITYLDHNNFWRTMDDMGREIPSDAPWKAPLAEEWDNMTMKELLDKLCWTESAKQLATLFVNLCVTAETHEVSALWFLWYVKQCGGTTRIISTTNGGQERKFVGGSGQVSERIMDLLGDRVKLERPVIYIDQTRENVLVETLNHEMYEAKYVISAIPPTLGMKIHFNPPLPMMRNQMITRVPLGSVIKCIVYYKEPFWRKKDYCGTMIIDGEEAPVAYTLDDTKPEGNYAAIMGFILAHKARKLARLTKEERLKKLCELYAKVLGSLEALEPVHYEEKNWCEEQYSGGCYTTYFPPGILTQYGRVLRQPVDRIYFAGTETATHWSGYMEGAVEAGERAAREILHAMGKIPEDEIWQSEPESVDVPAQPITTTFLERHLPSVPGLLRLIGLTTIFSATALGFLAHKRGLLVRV
MAO-A, sequence (P21397 whole entry, species assumed): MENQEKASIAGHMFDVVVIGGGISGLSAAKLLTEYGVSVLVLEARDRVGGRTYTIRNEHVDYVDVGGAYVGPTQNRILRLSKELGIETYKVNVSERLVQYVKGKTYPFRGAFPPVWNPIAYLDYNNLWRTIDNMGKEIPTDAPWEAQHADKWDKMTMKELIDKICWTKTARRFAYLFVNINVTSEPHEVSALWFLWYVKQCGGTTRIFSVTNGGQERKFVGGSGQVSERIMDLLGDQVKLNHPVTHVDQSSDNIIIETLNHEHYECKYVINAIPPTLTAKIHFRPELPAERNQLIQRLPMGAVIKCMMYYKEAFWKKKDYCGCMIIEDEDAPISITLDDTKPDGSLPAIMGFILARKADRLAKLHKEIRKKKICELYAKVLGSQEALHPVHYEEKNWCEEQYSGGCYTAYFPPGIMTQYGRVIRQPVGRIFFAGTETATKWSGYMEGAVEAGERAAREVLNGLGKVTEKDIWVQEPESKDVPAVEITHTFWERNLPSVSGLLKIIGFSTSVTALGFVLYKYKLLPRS

CC(C)(C)OC(=O)N1CCN(C(=S)SCc2cn(Cc3ccccc3F)nn2)CC1 [Compound 22, tert Butyl 4-(((1-(2-fluorobenzyl)-1H-1,2,3-triazol-4-yl)methylthio)carbonothioyl)-piperazine-1-carboxylate]
effect on MAO-B activity (in words) (MAO-B): no significant effects
effect on MAO-A activity (in words) (MAO-A): no significant effects

Cc1ccc(Cn2cc(CSC(=S)N3CCN(C(=O)OC(C)(C)C)CC3)nn2)cc1 [Compound 26, tert Butyl 4-(((1-(4-methylbenzyl)-1H-1,2,3-triazol-4-yl)methylthio)carbonothioyl)-piperazine-1-carboxylate]
effect on MAO-B activity (in words) (MAO-B): no significant effects
mode of inhibition over LSD1 substrate H3K4me2 (LSD1 [1]; FAD 2.5 μM, peptide 10 to 80 μM): non-competitive inhibitor
mode of inhibition over LSD1 cofactor FAD (LSD1 [1]; peptide 25 μM, FAD 0.6 to 9.0 μM): competitive inhibitor
binding of LSD1 to snai1 [2]: significantly decreased
effect on MAO-A activity (in words) (MAO-A): no significant effects
cell proliferation (MGC-803 cells [3]): cannot inhibit the cell proliferation
LSD1 activity after dialysis (LSD1 [4]): the activity can be restored
amount of FAD in the dialysis tube after dialysis (LSD1 [5]): much less than that in control group
cell migration (MGC-803 cells [6]): significantly inhibited

Cc1ccccc1Cn1cc(CSC(=S)N2CCN(C(=O)OC(C)(C)C)CC2)nn1 [Compound 29]
LSD1 inhibitory activity (in words) [7]: without any detectable activity

CC(C)(C)OC(=O)N1CCN(C(=S)SCc2cn(CCOc3cc(=O)oc4ccccc34)nn2)CC1 [Compound 47]
LSD1 inhibitory activity (in words) [7]: complete loss of activity or very weak binding affinity

CC(C)(C)OC(=O)N1CCN(C(=S)SCc2cn(Cc3ccc4ccccc4c3)nn2)CC1 [Compound 48]
LSD1 inhibitory activity (in words) [7]: complete loss of activity or very weak binding affinity

CC(C)(C)OC(=O)N1CCN(C(=S)SCc2cn(Cc3cc(=O)[nH]c4ccccc34)nn2)CC1 [Compound 49]
LSD1 inhibitory activity (in words) [7]: complete loss of activity or very weak binding affinity

CC(C)(C)OC(=O)N1CCN(C(=S)SCc2cn(Cc3nc4ccccc4[nH]3)nn2)CC1 [Compound 50]
LSD1 inhibitory activity (in words) [7]: complete loss of activity or very weak binding affinity

CC(C)(C)OC(=O)N1CCN(C(=S)SCc2cn(CC3=CC(=O)OC3)nn2)CC1 [Compound 51]
LSD1 inhibitory activity (in words) [7]: complete loss of activity or very weak binding affinity

Cc1cc2nc3c(=O)[nH]c(=O)nc-3n(C[C@H](O)[C@H](O)[C@H](O)COP(=O)(O)OP(=O)(O)OC[C@H]3O[C@@H](n4cnc5c(N)ncnc54)[C@H](O)[C@@H]3O)c2cc1C [FAD, flavin adenine dinucleotide]
pKd (LSD1 [8]): 6.74
